# Data published in patent US7601721B2, “Substituted heterocyclic compounds” (Gilead Palo Alto, Inc., priority 2004, dated 2009).
# Tested on: Palmitoyl CoA oxidation in rat heart mitochondria
# Assay: Palmitoyl CoA oxidation in isolated rat heart mitochondria (Mitochondrial Assays)
# Format: biochemical
# Details: 1-C14 palmitoyl CoA, 15 min at 30° C., read-out: Palm CoA inhibition IC50
# Protocol: Rat heart mitochondria are isolated by the method of Nedergard and Cannon (Methods in Enzymol. 55, 3, 1979).
# Palmitoyl CoA oxidation—The Palmityl CoA oxidation is carried out in a total volume of 100 micro liters containing the following agents: 110 mM KCl, 33 mM Tris buffer at pH 8, 2 mM KPi, 2 mM MgCl2, 0.1 mM EDTA, 14.7 microM defatted BSA, 0.5 mM malic acid, 13 mM carnitine, 1 mM ADP, 52 micrograms of mitochondrial protein, and 16 microM 1-C14 palmitoyl CoA (Sp. Activity 60 mCi/mmole; 20 microCi/ml, using 5 microliters per assay). The compounds of this invention are added in a DMSO solution at the following concentrations: 100 micro molar, 30 micro molar, and 3 micro molar. In each assay, a DMSO control is used. After 15 min at 30° C., the enzymatic reaction is centrifuged (20,000 g for 1 min), and 70 microliters of the supernatant is added to an activated reverse phase silicic acid column (approximately 0.5 ml of silicic acid). The column is eluted with 2 ml of water, and 0.5 ml of the eluent is used for scintillation counting to determine the amount of C^14 trapped as C^14 bicarbonate ion.
row,Molecule,IC50 [µM]
1,CC(=O)NC(COc1ccc2sc(C)nc2c1)CN1CCN(CC(=O)Nc2cccc(-c3ccccc3)c2)CC1 (stereo not shown) [2-{4-[2-(acetylamino)-3-(2-methylbenzothiazol-5-yloxy)propyl]piperazinyl}-N-(3-phenylphenyl)acetamide],12.7
2,CC(=O)NC(COc1ccc2sc(C)nc2c1)CN1CCN(C(=O)Nc2ccc3c(c2)Cc2ccccc2-3)CC1 (stereo not shown) [N-{2-[4-(N-fluoren-2-ylcarbamoyl)piperazinyl]-1-[(2-methylbenzothiazol-5-yloxy)methyl]ethyl}acetamide],8.2
3,Cc1nc2cc(OCC(CN3CCN(CC(=O)Nc4cccc(-c5ccccc5)c4)CC3)NS(C)(=O)=O)ccc2s1 (stereo not shown) [2-(4-{3-(2-methylbenzothiazol-5-yloxy)-2-[(methylsulfonyl)amino]propyl}piperazinyl)-N-(3-phenylphenyl)acetamide],2.9
4,N-fluoren-2-yl(4-{3-(2-methylbenzothiazol-5-yloxy)-2-[(methylsulfonyl)amino]propyl}-piperazinyl)carboxamide,3
